Where “and” joins values, the source holds several entries; their conditions need not be identical. Identical values can stand only once.
Experiments:
[1] = Particle size distribution by laser diffraction with dry dispersion; format: physicochemical; conditions: after micronization, dry measurement (3 or 4 bar)
Procedure: All measurements cited in the above tables were obtained by laser diffraction with dry dispersion using compressed air. Measuring in aqueous suspension with surfactants may lead to smaller particle sizes (×90 up to 1 μm smaller).
The particle size analysis data are usually reported as cumulative undersized distribution by volume. The symbol x is used to denote the particle size, which is defined as diameter of a volume equivalent sphere. Most common characteristic values are calculated from the particle size distribution by interpolation. Frequently used are the particle sizes at the undersize values of 10%, 50% and 90% of the volume distribution, denoted as x10, x50 and x90. x50 is also known as median particle size. The symbol d is widely used to designate the particle size, thus the symbol x may be replaced by the symbol d.

[2] = system: thromboxane analog U46619 induced PAH in minipigs; assay: PAH minipig model: comparison with and on top of standard of care (bosentan, sildenafil, riociguat); format: in vivo, Göttingen minipig
Description: Efficacy of inhaled comparative example 11 was compared with systemically applied bosentan, sildenafil and riociguat (see FIG. 53a) in the PAH minipig model. […] Therefore inhaled application of comparative example 11 offers clear benefits as systemic effects are avoided, compared to standard of care.

[3] = Bosentan 1 mg/kg systemically applied, % change per animal

Structure (SMILES) | PSD X10 [1] | PSD X50 [1] | PSD X90 [1] | BP decrease % [2, 3] | PAP decrease % [2, 3] | effects on PAP and BP ([2]; bosentan 1 mg/kg, sildenafil 300 μg/kg/h, riociguat 3 μg/kg/h systemically, comparative example 11 30 and 100 μg/kg inhaled)
O.O=C(O)c1ccc(CCN(CCc2ccccc2OCc2ccc(-c3ccc(C(F)(F)F)cc3)cc2Cl)[C@H]2CCCc3nc(C(=O)O)ccc32)cc1 [8c] | X10: 0.4 μm, | X50: 1.8 μm, | X90: 4.8 μm | – | – | –
O.O=C(O)c1ccc(CCN(CCc2ccccc2OCc2ccc(-c3ccc(C(F)(F)F)cc3)cc2Cl)[C@H]2CCCc3nc(C(=O)O)ccc32)cc1 [8d] | X10: 0.5 μm, | X50: 2.3 μm, | X90: 9.6 μm | – | – | –
O.O=C(O)c1ccc(CCN(CCc2ccccc2OCc2ccc(-c3ccc(C(F)(F)F)cc3)cc2Cl)[C@H]2CCCc3nc(C(=O)O)ccc32)cc1 [8f] | X10: 0.6 μm, | X50: 2.4 μm, | X90: 6.3 μm | – | – | –
O.O=C(O)c1ccc(CCN(CCc2ccccc2OCc2ccc(-c3ccc(C(F)(F)F)cc3)cc2Cl)[C@H]2CCCc3nc(C(=O)O)ccc32)cc1 [8g] | X10: 0,5 μm, | X50: 1.8 μm, | X90: 3.9 μm | – | – | –
COc1ccccc1Oc1c(NS(=O)(=O)c2ccc(C(C)(C)C)cc2)nc(-c2ncccn2)nc1OCCO [Bosentan, reference compound] | – | – | – | −6.7% and −15.0% and −10.3% and −12.7% | −3.7% and 3.9% and −7.7% and −16.0% | decrease in BP with only minor effects on PAP

Reference: US12138256B2, “Treatment of cardiopulmonary disorders” (Bayer Aktiengesellschaft, priority 2021, dated 2024)
